Legend:
[1] = test system: Rap1; experiment: GTP-RAP1 pull-down assay in MIN6 cells; format: cell-based
Description: (§1) GTP-RAP1 pull-down assay was performed according to the method described in Shibasaki T. et al. Proc. Natl. Acad. Sci. USA 104, 19333-9 (2007). Namely, MIN6 cells which had been let stand for 30 minutes in HEPES-KRB buffer in advance were cultured for further 15 minutes in HEPES-KRB buffer containing an agent of interest and 2.8 mM glucose. Then, the cells were fractured, and to the cell lysate thus obtained was added glutathione resin which carried GST-Ra1GDS-RID bound to it (SIGMA). After 90 minutes of incubation at 4 deg C., the resin was separated by centrifugation, washed several times with HEPES-KRB buffer, and subjected to SDS-PAGE gel electrophoresis. After the SDS-PAGE gel electrophoresis, Western blotting was carried to transfer the protein onto PVDF membrane, and Rap1 transferred on the membrane was detected with anti-Rap1 antibody (Santa Cruz Biotechnology, Inc., USA).
Epac2 has the GEF activity and activates Rap1 by converting it to GTP-bound Rap1 through its binding to […]. This reaction constitute part of signal transmission for insulin secretion in beta-cells. Thus, it was examined whether or not Rap1 is activated with SU agents, using MIN6 cells, which originate from beta-cells. Activation of Rap1 was measured by determining GTP-bound Rap1, using GTP-RAP1 pull-down assay.

[2] = biological target: T1, fluorescent-labeled mouse Epac2 (Mus musculus, UniProt Q9EQZ6); experiment: FRET dynamic analysis of fluorescent-labeled mouse Epac2 in COS-1 cells; format: cell-based; parameters: expressed in transfected cells; host or cells: COS-1 cells (A1); details: COS-1 cells that did not express SUR1, in the presence of SU agent
T1 sequence (Q9EQZ6 1-1011): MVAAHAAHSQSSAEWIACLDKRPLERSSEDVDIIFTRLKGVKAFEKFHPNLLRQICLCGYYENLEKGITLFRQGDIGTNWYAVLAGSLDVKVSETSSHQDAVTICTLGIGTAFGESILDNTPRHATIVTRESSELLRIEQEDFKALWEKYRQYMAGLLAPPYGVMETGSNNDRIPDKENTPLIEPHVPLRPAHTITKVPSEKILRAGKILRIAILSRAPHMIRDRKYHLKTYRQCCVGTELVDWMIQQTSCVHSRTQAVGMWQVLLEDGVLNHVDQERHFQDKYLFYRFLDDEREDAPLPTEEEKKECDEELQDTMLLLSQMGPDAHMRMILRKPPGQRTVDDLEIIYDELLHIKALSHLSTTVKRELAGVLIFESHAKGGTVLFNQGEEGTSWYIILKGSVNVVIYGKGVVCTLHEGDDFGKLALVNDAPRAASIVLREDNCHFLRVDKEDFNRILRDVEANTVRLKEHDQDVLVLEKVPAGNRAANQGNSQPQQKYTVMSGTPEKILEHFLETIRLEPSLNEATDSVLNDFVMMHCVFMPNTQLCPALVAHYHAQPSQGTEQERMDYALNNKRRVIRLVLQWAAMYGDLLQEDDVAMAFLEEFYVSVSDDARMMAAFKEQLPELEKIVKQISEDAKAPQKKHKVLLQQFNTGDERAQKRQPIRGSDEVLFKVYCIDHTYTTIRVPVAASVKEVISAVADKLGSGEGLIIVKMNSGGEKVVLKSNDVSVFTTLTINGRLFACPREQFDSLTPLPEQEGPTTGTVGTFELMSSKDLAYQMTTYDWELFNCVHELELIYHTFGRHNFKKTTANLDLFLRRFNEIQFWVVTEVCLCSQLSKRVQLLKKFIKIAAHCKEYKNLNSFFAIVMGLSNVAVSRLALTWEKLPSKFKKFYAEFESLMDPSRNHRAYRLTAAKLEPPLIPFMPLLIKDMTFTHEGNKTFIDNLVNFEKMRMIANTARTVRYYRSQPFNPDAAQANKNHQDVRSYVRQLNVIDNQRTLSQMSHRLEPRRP
Description: Two days before the day for measurement, the cells were transformed with fluorescent-labeled mouse Epac2 expression vector and then cultured. On the day before the day for measurement, the cells were transferred onto the glass culture dishes of 25 mm in diameter, and culture was continued. About 48 hours after the transformation, the culture medium was replaced with HEPES-KRB buffer (HEPES buffer containing 133.4 mM NaCl, 4.7 mM KCl, 1.2 mM KH2PO4, 1.2 mM MgSO4, 2.5 mM CaCl2, 5.0 mM NaHCO3, 2.8 mM glucose, and 0.2% BSA (pH 7.4)). The cells were observed through a confocal microscope (FV1000, Olympus Corporation) equipped with the UPlanSApo objective lens (100*oil/1.40 NA) to set the focus of the lens on the cells, and excitation light with the wavelength of 440 nm was irradiated using 440 nm LD laser (FV5-LDPSU, Olympus Corporation) at the power of 0.5%. Fluorescent light emitted from thus excited fluorescent-labeled mouse Epac2 was observed through two fluorescence filters, 480DF30 (for 480 nm light) and 535DF25 (for 535 nm light) as dual images of the fluorescent light every 5 seconds for dynamic analysis of the emitted fluorescent light. The results of the dynamic analysis, after first calculating the ratio R in intensity of fluorescence at 535 nm to 480 nm at each measurement (ratio of intensity at 535 nm/intensity at 480 nm), were expressed in the value which was derived by dividing the ratio by the initial value R0 (ratio of intensity at 535 nm/intensity at 480 nm before addition of an agent), i.e., R/R0. All the observation was carried out at room temperature.

[3] = test system: Rap1; experiment: GTP-RAP1 pull-down assay in Epac2-lacking pancreatic beta-cells; format: cell-based, mouse
Description: (§2) Pancreatic beta-cells lacking Epac2 were obtained according to the technique disclosed in Shibasaki T. et al. Proc. Natl. Acad. Sci. USA 104, 19333-9 (2007), by isolating from the mice which were bred after crossing Epac2-lacking mice with IT6 mice, in which SV40 large T […] is expressed under the control of human insulin gene promoter. The method for preparing IT6 mice is described in Miyazaki J, et al., Endocrinology, 127, 126-132 (1990). Further, MIN6 cells were prepared by the technique disclosed in Japanese patent application publication No. 2002-125661.
as §1
Then, using Epac2-lacking pancreatic beta-cells, examination was performed as to whether Rap1 was activated by SU agents. Activation of Rap1 was measured by determining the amount of GTP-bound Rap1 using GTP-RAP1 pull-down assay.

[4] = test system: Rap1; experiment: GTP-RAP1 pull-down assay in Epac2-lacking pancreatic beta-cells transformed with mouse Epac2 expression vector; format: cell-based
Description: as §2, §1

[5] = biological target: T1, fluorescent-labeled mouse Epac2; experiment: FRET dynamic analysis of fluorescent-labeled mouse Epac2 in MIN6 cells; format: cell-based; parameters: expressed in transfected cells; host or cells: MIN6 cells (A3); details: in the presence of SU agent
Description: All the observation was carried out at room temperature.

[6] = biological target: T2, mouse Epac2 (Mus musculus, UniProt Q9EQZ6); experiment: Sulfonylurea binding experiment with tritium-labeled glibenclamide in COS-1 cells transformed with mouse Epac2 expression vector
T2 construct: expressed in transfected cells; host or cells: COS-1 cells
T2 sequence (Q9EQZ6 1-1011): T1 sequence (Q9EQZ6 1-1011)
Description: COS1 cells were transformed with mouse Epac2 expression vector. […] The membrane was washed four times with the same buffer which had been ice cooled, and then measured for radioactivity on a liquid scintillation counter.

[7] = test system: pancreatic islets; experiment: Insulin secretion experiment, pancreatic islets of wild-type and Epac2-lacking mice; format: cell-based, mouse
Description: Mouse pancreatic beta-cells were isolated from wild-type mice (C57BL/6) or Epac2-lacking mice, and cultured for two days. The mouse pancreatic beta-cells were let stand in HEPES-KRB buffer containing 2.8 mM glucose for 30 minutes. The cells then were dispensed to […] in such a manner that five pancreatic islets of a like size were contained in each well, and cultured for 15 minutes in 100 micro L HEPES-KRB buffer containing an agent of interest and 2.8 mM glucose. The amount of insulin released in the medium and that in the cells were measured using an insulin assay kit (Medical Biological Laboratories Co. Ltd.). The amount of secreted insulin was normalized by the amount of insulin in the cells.
The effect of SU agents on insulin secretion via Epac2 was examined in an insulin secretion experiment using pancreatic islets. First, pancreatic islets obtained from wild-type mice and Epac2-lacking mice were stimulated with glucose, and the amount of secreted insulin was determined.

[8] = clinical report (Non-patent document 19); cited from earlier work
[9] = Oral glucose tolerance test in wild-type and Epac2-lacking mice; format: in vivo, mouse; details: oral 1.5 g/kg glucose plus 100 mg/kg tolbutamide
Description: Peripheral blood was sampled at a predetermined point of time, and serum insulin concentration and blood glucose concentration were measured with an ELISA kit (mftd. by Morinaga) and Antisense III glucose analysis device (Bayer Yakuhin, Ltd.), respectively.
Next, glucose was administered together with tolbutamide, and measurement was conducted in the same manner.

[10] = concentration-dependent, 15 minutes, 2.8 mM glucose

| Compound | amount of GTP-bound Rap1 (activation of Rap1) [1, 10] | change in R/R0 value (FRET) [2] | activation of Rap1 [3] | activation of Rap1 [4] | change in R/R0 value (FRET) [5] | amount of GTP-bound Rap1 (activation of Rap1) ([1]; concentrations higher than 100 nM) | IC50 [6] [µM] | insulin secretion, islets from Epac2-lacking mice compared with wild-type mice ([7]; 10 nM) | glycemic control in a patient with neonatal diabetes [8] | blood glucose concentration, Epac2-lacking mice compared with wild-type mice [9] | serum insulin concentration, Epac2-lacking mice compared with wild-type mice [9] | insulin secretion, islets from Epac2-lacking mice compared with wild-type mice ([7]; 100 nM) |
| --- | --- | --- | --- | --- | --- | --- | --- | --- | --- | --- | --- | --- |
| CC(=O)c1ccc(S(=O)(=O)NC(=O)NC2CCCCC2)cc1 [acetohexamide] | increase the amount of GTP-bound Rap1 | decrease in R/R0 | activated no Rapt | found to activate Rap1 | – | – | – | – | – | – | – | – |
| CCCNC(=O)NS(=O)(=O)c1ccc(Cl)cc1 [chlorpropamide] | increase the amount of GTP-bound Rap1 | decrease in R/R0 | activated no Rapt | found to activate Rap1 | – | – | – | – | – | – | – | – |
| COc1ccc(Cl)cc1C(=O)NCCc1ccc(S(=O)(=O)NC(=O)NC2CCCCC2)cc1 [glibenclamide] | increase the amount of GTP-bound Rap1 | decrease in R/R0 | activated no Rapt | found to activate Rap1 | concentration-dependent decrease in R/R0 value | failed to increase it | 0.025 | markedly low insulin secretion | – | – | – | – |
| Cc1ccc(S(=O)(=O)NC(=O)NN2CC3CCCC3C2)cc1 (stereo not shown) [gliclazide] | no effect on the amount of GTP-bound Rap1 | no change in R/R0 value | – | – | – | – | – | no significant difference | not effective | – | – | – |
| Cc1cnc(C(=O)NCCc2ccc(S(=O)(=O)NC(=O)NC3CCCCC3)cc2)cn1 [glipizide] | increase the amount of GTP-bound Rap1 | decrease in R/R0 | activated no Rapt | found to activate Rap1 | – | – | – | – | – | – | – | – |
| CC(C)[C@H]1CC[C@H](C(=O)N[C@H](Cc2ccccc2)C(=O)O)CC1 [nateglinide] | – | no change in R/R0 value | – | did not activate Rap1 | – | – | – | – | – | – | – | – |
| CCCCNC(=O)NS(=O)(=O)c1ccc(C)cc1 [tolbutamide] | – | decrease in R/R0 | activated no Rapt | found to activate Rap1 | concentration-dependent decrease in R/R0 value | – | 240 | – | – | high in the Epac2-lacking mice compared with the wild-type mice | low in the Epac2-lacking mice compared with the wild-type mice | markedly low insulin secretion |

From US20120082976A1, “METHOD OF SCREENING FOR INSULIN SECRETION-POTENTIATING AGENTS” (KOBE UNIVERSITY, priority 2009, published 2012)
